ChEMBL document CHEMBL2311302, “Synthesis and evaluation of 5'-modified thymidines and 5-hydroxymethyl-2'-deoxyuridines as Mycobacterium tuberculosis thymidylate kinase inhibitors” (Bioorg Med Chem, 2013)
Active and inactive are the calls of the source. The rule behind the calls is not given here.

Tests used:
[1] = biological target: T1, Thymidylate kinase (Mycobacterium tuberculosis) (UniProt P9WKE1); experiment: Inhibition of Mycobacterium tuberculosis thymidine monophosphate kinase at 2.6 mM by enzyme-coupling based spectrophotometric assay
T1 sequence (whole entry): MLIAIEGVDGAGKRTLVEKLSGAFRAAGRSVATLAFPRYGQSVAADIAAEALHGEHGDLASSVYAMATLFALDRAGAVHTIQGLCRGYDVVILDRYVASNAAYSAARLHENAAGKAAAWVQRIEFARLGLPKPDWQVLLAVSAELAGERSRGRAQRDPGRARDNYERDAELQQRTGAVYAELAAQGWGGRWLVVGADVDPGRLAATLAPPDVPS

[2] = biological target: T2, Thymidylate kinase (Mycobacterium tuberculosis, UniProt P9WKE1); experiment: Inhibition of Mycobacterium tuberculosis thymidine monophosphate kinase by enzyme-coupling based spectrophotometric assay
T2 sequence (P9WKE1 whole entry): T1 sequence (whole entry)

[3] = biological target: T1, Thymidylate kinase (Mycobacterium tuberculosis); experiment: Inhibition of Mycobacterium tuberculosis thymidine monophosphate kinase at 2.4 mM by enzyme-coupling based spectrophotometric assay

SMILES | Ki [2] [µM] | also measured
N#CCC[C@H]1O[C@@H](n2cc(CO)c(=O)[nH]c2=O)C[C@@H]1O |  | inhibition [1]: inactive
Cc1cn([C@H]2C[C@H](O)[C@@H](CCC#N)O2)c(=O)[nH]c1=O | 48 | 
CNS(=O)(=O)CC[C@H]1O[C@@H](n2cc(C)c(=O)[nH]c2=O)C[C@@H]1O | 240 | 
O=c1[nH]c(=O)n([C@H]2C[C@H](O)[C@@H](CCc3nnn[nH]3)O2)cc1CO |  | inhibition [3]: inactive
Cc1cn([C@H]2C[C@H](O)[C@@H](CCS(C)(=O)=O)O2)c(=O)[nH]c1=O | 340 | 
Cc1cn([C@H]2C[C@H](O)[C@@H](CCc3nnn[nH]3)O2)c(=O)[nH]c1=O | 70 | 
